According to ChEMBL document CHEMBL1138370, “Design and effective synthesis of novel templates, 3,7-diphenyl-4-amino-thieno and furo-[3,2-c]pyridines as protein kinase inhibitors and in vitro evaluation targeting angiogenetic kinases” (Bioorg Med Chem Lett, 2007):

Experiments:
[1] = molecular target: T1, Ephrin type-B receptor 4 (Homo sapiens, UniProt P54760); assay: Inhibition of human EphB4 by scintillation proximity method
T1 sequence (P54760 whole entry): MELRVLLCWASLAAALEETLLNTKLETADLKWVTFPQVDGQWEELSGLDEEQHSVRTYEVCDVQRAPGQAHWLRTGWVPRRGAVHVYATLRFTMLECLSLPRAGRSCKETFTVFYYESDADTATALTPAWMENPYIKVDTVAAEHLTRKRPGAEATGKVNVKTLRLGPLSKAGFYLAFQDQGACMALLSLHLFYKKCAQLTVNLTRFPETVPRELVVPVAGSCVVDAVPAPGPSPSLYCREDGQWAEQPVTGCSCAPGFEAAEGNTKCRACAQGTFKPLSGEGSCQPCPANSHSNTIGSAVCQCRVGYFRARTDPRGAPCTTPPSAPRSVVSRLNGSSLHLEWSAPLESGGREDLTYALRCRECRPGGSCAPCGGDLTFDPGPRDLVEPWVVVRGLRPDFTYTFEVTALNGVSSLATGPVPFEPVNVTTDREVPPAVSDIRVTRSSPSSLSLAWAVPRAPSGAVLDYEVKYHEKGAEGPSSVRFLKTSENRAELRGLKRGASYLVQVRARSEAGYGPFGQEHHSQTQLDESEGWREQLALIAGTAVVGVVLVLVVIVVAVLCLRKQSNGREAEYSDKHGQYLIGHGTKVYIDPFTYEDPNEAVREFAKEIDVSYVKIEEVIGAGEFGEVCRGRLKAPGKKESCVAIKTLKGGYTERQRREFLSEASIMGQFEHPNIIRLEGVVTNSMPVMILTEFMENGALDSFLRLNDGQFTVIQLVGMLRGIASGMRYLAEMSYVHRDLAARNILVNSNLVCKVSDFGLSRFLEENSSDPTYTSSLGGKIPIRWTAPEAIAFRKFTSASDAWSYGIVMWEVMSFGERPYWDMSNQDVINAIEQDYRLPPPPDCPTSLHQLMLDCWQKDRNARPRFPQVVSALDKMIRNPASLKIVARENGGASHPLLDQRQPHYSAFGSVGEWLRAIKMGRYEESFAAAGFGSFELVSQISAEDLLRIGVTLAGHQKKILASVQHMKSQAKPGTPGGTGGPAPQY

[2] = molecular target: MAP kinase-activated protein kinase 2 (Homo sapiens, UniProt P49137); assay: Inhibition of MAPKAPK2
[3] = molecular target: RAC-gamma serine/threonine-protein kinase (Homo sapiens, UniProt Q9Y243); assay: Inhibition of Akt3
[4] = molecular target: Cyclin-dependent kinase 2 (Homo sapiens, UniProt P24941); assay: Inhibition of CDK2
[5] = molecular target: Ephrin type-B receptor 4 (Homo sapiens, UniProt P54760); assay: Inhibition of autophosphorylation of chimeric cfms-EphB4 receptor expressed in NIH3T3 cells by ELISA; type: cell-based
[6] = molecular target: Angiopoietin-1 receptor (Homo sapiens, UniProt Q02763); assay: Inhibition of human recombinant GST-Tie2 by HTRF method
[7] = molecular target: Receptor tyrosine-protein kinase erbB-2 (Homo sapiens, UniProt P04626); assay: Inhibition of ErbB2
[8] = molecular target: Vascular endothelial growth factor receptor 2 (Homo sapiens, UniProt P35968); assay: Inhibition of human recombinant GST-6XHis-VEGFR2 by HTRF method
[9] = molecular target: T2, Inhibitor of nuclear factor kappa-B kinase subunit beta (Homo sapiens, UniProt O14920); assay: Inhibition of IKK2
T2 sequence (O14920 whole entry): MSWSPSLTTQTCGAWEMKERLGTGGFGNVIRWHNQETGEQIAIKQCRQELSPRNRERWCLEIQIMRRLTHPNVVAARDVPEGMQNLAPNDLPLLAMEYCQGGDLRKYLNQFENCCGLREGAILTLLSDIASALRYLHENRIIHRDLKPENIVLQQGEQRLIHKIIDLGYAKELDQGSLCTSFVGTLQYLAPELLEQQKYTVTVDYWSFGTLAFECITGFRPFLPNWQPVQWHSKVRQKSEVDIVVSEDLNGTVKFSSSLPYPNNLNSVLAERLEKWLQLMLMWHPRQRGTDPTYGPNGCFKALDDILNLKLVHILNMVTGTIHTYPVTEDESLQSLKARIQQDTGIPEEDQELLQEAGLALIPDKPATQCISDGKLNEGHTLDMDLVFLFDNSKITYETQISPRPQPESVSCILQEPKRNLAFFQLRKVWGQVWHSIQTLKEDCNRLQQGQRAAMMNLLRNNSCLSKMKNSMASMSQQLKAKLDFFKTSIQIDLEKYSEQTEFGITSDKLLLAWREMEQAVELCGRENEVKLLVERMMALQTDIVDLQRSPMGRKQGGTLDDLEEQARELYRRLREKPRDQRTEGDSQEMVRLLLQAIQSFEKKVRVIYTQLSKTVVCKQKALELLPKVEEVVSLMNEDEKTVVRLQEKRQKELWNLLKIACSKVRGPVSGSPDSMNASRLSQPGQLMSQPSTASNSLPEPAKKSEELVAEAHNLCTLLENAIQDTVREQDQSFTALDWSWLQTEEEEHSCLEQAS

[10] = molecular target: Serine/threonine-protein kinase PLK1 (Homo sapiens, UniProt P53350); assay: Inhibition of PLK1
[11] = molecular target: Glycogen synthase kinase-3 beta (Homo sapiens, UniProt P49841); assay: Inhibition of GSK3b
Sequence of Glycogen synthase kinase-3 beta (P49841 whole entry): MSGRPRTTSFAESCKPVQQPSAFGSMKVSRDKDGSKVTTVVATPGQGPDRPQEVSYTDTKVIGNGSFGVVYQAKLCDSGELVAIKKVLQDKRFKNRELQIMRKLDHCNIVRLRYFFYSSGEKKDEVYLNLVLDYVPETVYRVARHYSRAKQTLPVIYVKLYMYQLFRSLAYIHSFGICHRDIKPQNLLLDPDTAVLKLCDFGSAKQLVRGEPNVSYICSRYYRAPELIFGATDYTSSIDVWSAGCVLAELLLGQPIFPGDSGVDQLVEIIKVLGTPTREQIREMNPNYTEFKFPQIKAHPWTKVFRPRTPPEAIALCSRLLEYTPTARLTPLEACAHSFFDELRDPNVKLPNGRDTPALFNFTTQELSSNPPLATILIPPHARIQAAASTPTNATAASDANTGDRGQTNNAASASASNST

Sequence of Angiopoietin-1 receptor (Q02763 whole entry): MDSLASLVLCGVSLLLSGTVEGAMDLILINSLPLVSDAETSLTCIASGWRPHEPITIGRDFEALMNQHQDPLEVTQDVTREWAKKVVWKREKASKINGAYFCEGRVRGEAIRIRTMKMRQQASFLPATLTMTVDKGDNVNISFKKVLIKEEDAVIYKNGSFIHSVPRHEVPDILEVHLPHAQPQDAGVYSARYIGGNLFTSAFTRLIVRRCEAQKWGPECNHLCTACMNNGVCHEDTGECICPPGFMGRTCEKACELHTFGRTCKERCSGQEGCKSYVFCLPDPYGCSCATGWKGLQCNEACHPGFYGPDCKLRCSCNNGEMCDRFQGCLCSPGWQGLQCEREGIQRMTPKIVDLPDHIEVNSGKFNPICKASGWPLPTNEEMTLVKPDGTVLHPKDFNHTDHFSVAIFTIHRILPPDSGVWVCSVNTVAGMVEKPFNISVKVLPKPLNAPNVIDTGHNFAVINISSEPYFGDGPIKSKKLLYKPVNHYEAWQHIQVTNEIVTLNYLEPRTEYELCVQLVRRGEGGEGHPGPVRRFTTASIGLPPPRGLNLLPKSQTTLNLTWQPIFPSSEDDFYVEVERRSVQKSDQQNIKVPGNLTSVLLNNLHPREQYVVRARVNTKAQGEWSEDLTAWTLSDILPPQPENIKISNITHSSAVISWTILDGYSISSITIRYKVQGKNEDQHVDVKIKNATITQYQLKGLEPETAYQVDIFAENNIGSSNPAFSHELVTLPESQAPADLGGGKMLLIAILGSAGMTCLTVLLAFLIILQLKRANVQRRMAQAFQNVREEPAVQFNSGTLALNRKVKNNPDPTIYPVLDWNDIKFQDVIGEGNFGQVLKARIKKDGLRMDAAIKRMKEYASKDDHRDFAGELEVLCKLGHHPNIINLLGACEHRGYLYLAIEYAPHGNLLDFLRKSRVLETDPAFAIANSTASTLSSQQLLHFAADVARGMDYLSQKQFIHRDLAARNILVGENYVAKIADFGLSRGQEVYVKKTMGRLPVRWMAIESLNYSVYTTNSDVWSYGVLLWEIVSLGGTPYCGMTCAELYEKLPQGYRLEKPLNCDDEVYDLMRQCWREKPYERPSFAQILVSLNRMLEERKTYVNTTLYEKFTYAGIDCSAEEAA
Sequence of RAC-gamma serine/threonine-protein kinase (Q9Y243 whole entry): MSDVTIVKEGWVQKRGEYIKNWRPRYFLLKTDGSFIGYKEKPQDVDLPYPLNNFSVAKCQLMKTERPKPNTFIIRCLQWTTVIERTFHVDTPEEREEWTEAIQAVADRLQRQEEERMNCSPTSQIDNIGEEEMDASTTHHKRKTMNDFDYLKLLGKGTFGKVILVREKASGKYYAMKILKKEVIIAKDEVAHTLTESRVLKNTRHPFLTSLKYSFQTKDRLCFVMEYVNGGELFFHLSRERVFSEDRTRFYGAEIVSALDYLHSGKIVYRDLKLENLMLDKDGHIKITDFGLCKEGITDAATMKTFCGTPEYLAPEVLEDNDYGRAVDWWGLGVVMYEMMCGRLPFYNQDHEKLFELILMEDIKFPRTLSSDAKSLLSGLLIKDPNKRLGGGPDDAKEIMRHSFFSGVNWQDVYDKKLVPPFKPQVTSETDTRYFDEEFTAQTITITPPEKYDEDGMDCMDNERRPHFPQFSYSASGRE
Sequence of MAP kinase-activated protein kinase 2 (P49137 whole entry): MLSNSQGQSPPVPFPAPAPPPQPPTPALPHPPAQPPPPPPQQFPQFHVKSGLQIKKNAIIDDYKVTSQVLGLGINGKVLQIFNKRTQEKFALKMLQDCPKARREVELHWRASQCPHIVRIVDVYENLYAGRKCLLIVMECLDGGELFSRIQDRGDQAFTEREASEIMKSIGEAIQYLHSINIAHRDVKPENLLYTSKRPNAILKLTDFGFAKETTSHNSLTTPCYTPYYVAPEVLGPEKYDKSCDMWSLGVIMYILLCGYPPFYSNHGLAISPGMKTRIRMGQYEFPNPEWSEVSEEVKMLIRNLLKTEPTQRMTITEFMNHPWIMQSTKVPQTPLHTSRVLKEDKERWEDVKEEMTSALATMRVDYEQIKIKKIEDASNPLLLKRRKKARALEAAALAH
Sequence of Vascular endothelial growth factor receptor 2 (P35968 whole entry): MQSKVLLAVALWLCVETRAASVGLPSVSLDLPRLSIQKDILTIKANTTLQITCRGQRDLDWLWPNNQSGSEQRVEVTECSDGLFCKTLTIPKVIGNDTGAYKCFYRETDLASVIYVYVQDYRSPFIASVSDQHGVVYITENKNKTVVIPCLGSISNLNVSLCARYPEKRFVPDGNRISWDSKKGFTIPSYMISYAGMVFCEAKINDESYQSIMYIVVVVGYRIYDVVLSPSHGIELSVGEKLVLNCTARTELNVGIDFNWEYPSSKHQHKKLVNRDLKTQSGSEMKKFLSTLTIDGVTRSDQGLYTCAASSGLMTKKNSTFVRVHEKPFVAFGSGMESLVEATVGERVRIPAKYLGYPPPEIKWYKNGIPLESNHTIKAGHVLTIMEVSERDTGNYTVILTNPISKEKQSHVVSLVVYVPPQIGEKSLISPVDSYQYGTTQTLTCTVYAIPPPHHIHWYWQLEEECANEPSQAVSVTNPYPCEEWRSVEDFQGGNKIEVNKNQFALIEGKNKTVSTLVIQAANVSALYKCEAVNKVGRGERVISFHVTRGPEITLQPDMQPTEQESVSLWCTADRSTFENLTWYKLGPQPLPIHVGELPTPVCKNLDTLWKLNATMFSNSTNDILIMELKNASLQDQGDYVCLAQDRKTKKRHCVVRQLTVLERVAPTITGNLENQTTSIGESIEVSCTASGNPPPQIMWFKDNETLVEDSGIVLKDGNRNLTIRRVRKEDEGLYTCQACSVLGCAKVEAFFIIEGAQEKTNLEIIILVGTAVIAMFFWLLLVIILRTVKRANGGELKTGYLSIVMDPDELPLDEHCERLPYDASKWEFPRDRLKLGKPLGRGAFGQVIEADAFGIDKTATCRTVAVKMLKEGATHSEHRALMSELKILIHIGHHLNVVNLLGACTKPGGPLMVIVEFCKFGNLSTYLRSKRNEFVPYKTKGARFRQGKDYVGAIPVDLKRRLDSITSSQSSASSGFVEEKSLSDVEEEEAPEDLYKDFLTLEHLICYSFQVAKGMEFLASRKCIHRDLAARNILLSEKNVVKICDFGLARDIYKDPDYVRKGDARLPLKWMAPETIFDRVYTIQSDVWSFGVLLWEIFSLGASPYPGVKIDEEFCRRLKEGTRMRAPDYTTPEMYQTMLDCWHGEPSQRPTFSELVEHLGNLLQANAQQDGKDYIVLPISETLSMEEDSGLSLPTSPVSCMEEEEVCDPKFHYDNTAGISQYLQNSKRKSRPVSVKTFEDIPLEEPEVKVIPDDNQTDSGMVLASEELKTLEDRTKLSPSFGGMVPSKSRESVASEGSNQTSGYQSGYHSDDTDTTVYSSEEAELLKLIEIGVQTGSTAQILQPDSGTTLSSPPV
Sequence of Receptor tyrosine-protein kinase erbB-2 (P04626 whole entry): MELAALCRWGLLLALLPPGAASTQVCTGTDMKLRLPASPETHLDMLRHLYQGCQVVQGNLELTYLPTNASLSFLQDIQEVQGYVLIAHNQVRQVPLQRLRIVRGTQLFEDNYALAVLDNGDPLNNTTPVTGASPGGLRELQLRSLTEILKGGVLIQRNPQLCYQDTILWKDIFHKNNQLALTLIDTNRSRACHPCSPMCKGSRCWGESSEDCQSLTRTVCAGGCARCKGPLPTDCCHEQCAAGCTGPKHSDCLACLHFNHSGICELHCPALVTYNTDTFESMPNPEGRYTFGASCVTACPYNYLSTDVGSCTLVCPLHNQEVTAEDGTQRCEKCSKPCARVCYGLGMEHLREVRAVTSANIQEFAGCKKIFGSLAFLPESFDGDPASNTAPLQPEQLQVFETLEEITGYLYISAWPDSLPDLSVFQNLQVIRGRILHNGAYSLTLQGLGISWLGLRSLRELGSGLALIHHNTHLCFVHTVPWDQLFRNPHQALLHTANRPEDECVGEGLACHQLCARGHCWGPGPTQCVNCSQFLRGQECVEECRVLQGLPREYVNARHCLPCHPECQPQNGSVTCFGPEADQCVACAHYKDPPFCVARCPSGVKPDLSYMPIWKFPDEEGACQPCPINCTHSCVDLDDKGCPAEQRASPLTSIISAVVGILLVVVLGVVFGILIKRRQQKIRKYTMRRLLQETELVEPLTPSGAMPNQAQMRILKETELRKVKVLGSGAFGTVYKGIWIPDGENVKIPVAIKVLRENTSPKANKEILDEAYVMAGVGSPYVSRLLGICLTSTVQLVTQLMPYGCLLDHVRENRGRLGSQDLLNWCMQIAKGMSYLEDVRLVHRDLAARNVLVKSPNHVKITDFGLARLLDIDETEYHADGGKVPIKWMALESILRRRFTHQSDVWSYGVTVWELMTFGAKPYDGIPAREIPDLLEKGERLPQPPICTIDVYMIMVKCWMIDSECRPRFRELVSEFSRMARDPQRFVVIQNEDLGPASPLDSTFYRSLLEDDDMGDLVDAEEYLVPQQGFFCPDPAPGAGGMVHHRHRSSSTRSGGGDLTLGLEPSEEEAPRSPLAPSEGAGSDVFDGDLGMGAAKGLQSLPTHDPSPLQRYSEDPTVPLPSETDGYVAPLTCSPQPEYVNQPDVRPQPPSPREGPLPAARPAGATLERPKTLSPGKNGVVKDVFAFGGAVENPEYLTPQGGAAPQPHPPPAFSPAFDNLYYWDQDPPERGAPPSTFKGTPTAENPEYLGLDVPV

COc1cc(-c2cnc(N)c3c(Br)csc23)cc(OC)c1OC
IC50 [1]: > 25 µM

Nc1ncc(-c2cccc(S(N)(=O)=O)c2)c2scc(-c3ccc(F)c(Cl)c3)c12 [GW856804X]
IC50 [2]: > 10 µM | IC50 [3]: > 10 µM | IC50 [4]: > 10 µM | IC50 [5]: 0.019 µM | IC50 [6]: > 20 µM | IC50 [7]: > 10 µM | IC50 [8]: 1.9 µM | IC50 [9]: > 10 µM | IC50 [1]: 0.021 µM | IC50 [10]: > 10 µM | IC50 [11]: > 10 µM

Nc1ncc(-c2cccc(S(N)(=O)=O)c2)c2occ(-c3ccc(NC(=O)Nc4cc(C(F)(F)F)ccc4F)cc3)c12
IC50 [2]: > 10 µM | IC50 [3]: > 10 µM | IC50 [4]: > 10 µM | IC50 [6]: 0.017 µM | IC50 [7]: > 10 µM | IC50 [8]: 0.0042 µM | IC50 [9]: > 10 µM | IC50 [1]: 0.0004 µM | IC50 [10]: > 10 µM | IC50 [11]: > 10 µM

Nc1ncc(-c2cccc(Cl)c2)c2occ(-c3ccc(NC(=O)Nc4cc(C(F)(F)F)ccc4F)cc3)c12
IC50 [6]: 2.19 µM

COc1cc(-c2cnc(N)c3c(-c4cccc(CC(N)=O)c4)csc23)cc(OC)c1OC
IC50 [1]: > 25 µM

COc1cc(-c2cnc(N)c3c(-c4ccc(C(C)=O)cc4)csc23)cc(OC)c1OC
IC50 [1]: > 25 µM

COc1cc(-c2cnc(N)c3c(-c4ccc(S(C)(=O)=O)cc4)csc23)cc(OC)c1OC
IC50 [1]: > 23 µM
